Reference: EP4772514A1, “MACROCYCLIC COMPOUNDS, PREPARATION METHOD THEREFOR, AND USE THEREOF” (Genfleet Therapeutics (Shanghai) Inc., priority 2023, dated 2025)
Structures can show the parent of a compound that is named as a salt. Where two headings read alike, the source gives them in different places.

How the values were obtained:
p-ERK = experiment: Cell p-ERK assay (HTRF, Advance ERK phospho-T202/Y204 kit) in NCI-H441 cells; format: cell-based; details: NCI-H441, human non-small cell lung cancer cell strain, KRAS G12V mutation, 3 h compound incubation
Experimental: AsPC-1 cells were purchased from ATCC, Cat. No. CRL-1682; NCI-H441 cells were purchased from ATCC, Cat. No. HTB-174; RPMI-1640 medium was purchased from Gibco, Cat. No. 11875-093; FBS was purchased from Gibco, Cat. No. 10099-141C; penicillin/streptomycin double-antibiotic solution (PS) was purchased from Gibco, Cat. No. 15140-122; trypsin (containing EDTA) was purchased from Gibco, Cat. No. 25200-072; DMSO was purchased from VWRAMRESCO, Cat. No. 0231-500ML; 96-well cell culture plates were purchased from Corning, Cat. No. 3599; white-bottomed, opaque 96-well plates were purchased from Cisbio, Cat. No. 66PL96025; Advance ERK phospho-T202/Y204 kit was purchased from Cisbio, Cat. No. 64AERPEH; cell counter was purchased from CHEMOMETEC, model: NC-200; microplate reader was purchased from PerkinElmer, model: EnVision.
AsPC-1, a human pancreatic cancer cell strain endogenously containing a KRAS^G12D mutation, was cultured in a complete medium containing RPMI-1640 + 10% FBS + 1% PS. NCI-H441, a human non-small cell lung cancer cell strain endogenously containing a KRAS^G12V mutation, was cultured in a complete medium containing RPMI-1640 + 10% FBS + 1% PS.
The cells were digested with trypsin (containing EDTA), collected in their corresponding complete media, and counted. The density of the cell suspensions was adjusted with their corresponding complete media, and AsPC-1 cells (10000 cells/well) or NCI-H441 cells (20000 cells/well) were seeded into a 96-well cell culture plate, with the volume of the medium in each well being 80 µL. The cell culture plate was incubated in an incubator at 37 °C with 5% CO2 overnight. A series of 3.16-fold gradient dilutions of a 1000× compound stock solution were prepared with DMSO, and then diluted 200-fold with the complete medium described above to give 5× compound stock solutions. On the day after cell seeding, 20 µL of the 5× compound stock solution was added to each cell culture well. As a result, the final concentration of the compound in the cell culture well became 1×, and the DMSO content in the well was 0.1%. In addition to the compound-treated wells described above, cell-containing DMSO control wells were also set. A complete medium containing 0.5% DMSO was added at 20 µL/well. After the mixture was well mixed, the culture plate was incubated in the incubator at 37 °C with 5% CO2 for another 3 h. The medium was then removed from the culture wells, and 50 µL of cell lysis buffer (from Advance ERK phospho-T202/Y204 kit) was added to each well. The mixture was well mixed, incubated for 30 min, and then transferred to a white-bottomed, opaque 96-well assay plate at 16 µL/well, and separately, 16 µL of cell lysis buffer was added to additional wells (serving as blank wells) in the assay plate. After the transfer was completed, 4 µL of p-ERK HTRF antibody mixture (from Advance ERK phospho-T202/Y204 kit) was added to each well of the assay plate, followed by a 4-hour incubation. The HTRF signal values (RLU) were then measured using a microplate reader, and the inhibition rate of the compound against p-ERK levels was calculated as follows: IR(%) = (RLUDMSO - RLUcompound)/(RLUDMSO - RLUblank) × 100%, where RLUDMSO is the average HTRF signal value from the DMSO control well samples, RLU is the average HTRF signal value from the blank well samples, and RLUcompound is the HTRF signal value from the compound-treated well samples. Using an XLfit software, the IR(%) values were plotted against the logarithm of the compound concentrations, and the dose-response curves were fitted using the four-parameter method to calculate the IC50 values.

NCI-H441 cells = experiment: 3D cell proliferation assay (CellTiter Glo-3D) in NCI-H441 cells; format: cell-based; details: NCI-H441, human lung cancer cell strain, KRAS G12V mutation, 3D culture, 2% FBS, 5 days, read-out: H441 AP IC50
From the text: MIA PaCa-2 cells were purchased from ATCC, Cat. No. CRL-1420; AsPC-1 cells were purchased from ATCC, Cat. No. CRL-1682; NCI-H441 cells were purchased from ATCC, Cat. No. HTB-174; NCI-H1975 cells were purchased from ATCC, Cat. No. CRL-5908; DMEM medium was purchased from Gibco, Cat. No. 11995-065; RPMI-1640 medium was purchased from Gibco, Cat. No. 11875-093; FBS was purchased from Gibco, Cat. No. 10099-141C; penicillin/streptomycin double-antibiotic solution (PS) was purchased from Gibco, Cat. No. 15140-122; Horse serum was purchased from Gibco, Cat. No. 16050130; trypsin (containing EDTA) was purchased from Gibco, Cat. No. 25200-072; DMSO was purchased from VWRAMRESCO, Cat. No. 0231-500ML; 384-well cell culture plates were purchased from Corning, Cat. No. 3830; white-bottomed, opaque 384-well assay plates were purchased from Corning, Cat. No. 3570; CellTiter Glo-3D kit was purchased from Promega, Cat. No. G9683; cell counter was purchased from CHEMOMETEC, model: NC-200; microplate reader was purchased from PerkinElmer, model: EnVision.
MIA PaCa-2, a human pancreatic cancer cell strain endogenously containing a KRAS^G12Cmutation, was cultured in a complete medium containing DMEM + 10% FBS + 2.5% Horse serum + 1% PS. AsPC-1, a human pancreatic cancer cell strain endogenously containing a KRAS^G12D mutation, was cultured in a complete medium containing RPMI-1640 + 10% FBS + 1% PS. NCI-H441 cells, a human lung cancer cell strain endogenously containing a KRAS^G12V mutation, were cultured in a complete medium containing RPMI-1640 + 10% FBS + 1% PS. NCI-H1975, a KRAS wild-type human lung cancer cell strain whose cell proliferation […], was cultured in a complete medium containing RPMI-1640 + 10% FBS + 1% PS.
The cells were digested with trypsin (containing EDTA), collected in their respective low-serum complete media containing 2% FBS (for MIA Paca-2 cell culture: DMEM + 2% FBS + 0.5% Horse serum + 1% PS), and counted. After the cell density was adjusted as required, MIA PaCa-2 cells (200 cells/well), AsPC-1 cells (800 cells/well), NCI-H441 cells (800 cells/well), or NCI-H1975 cells (400 cells/well) were seeded into a 384-well cell culture plate, with the volume of the medium in each well being 45 µL. The cell culture plate was incubated in an incubator at 37 °C with 5% CO2 overnight. A series of 3.16-fold gradient dilutions of a 1000× compound stock solution were prepared with DMSO, and then diluted 100-fold with the complete medium containing 2% FBS described above to give 10× compound stock solutions. On the day after cell seeding, 5 µL of the 10× compound stock solution was added to each cell culture well. As a result, the final concentration of the compound in the cell culture well became 1×, and the DMSO content in the well was 0.1%. In addition to the compound-treated wells described above, cell-containing DMSO control wells (with 5 µL of the complete medium containing 1% DMSO added to each well) and cell-free medium control wells (containing 50 µL of the complete medium with 2% FBS) were also set. The culture plate was incubated in an incubator at 37 °C with 5% CO2 for another 5 days, and then 30 µL of CellTiter-Glo working solution was added to each well. The mixture was well mixed, incubated for 30 min, left to stand at room temperature for 30 min, and then transferred to a white-bottomed, opaque 384-well assay plate at 40 µL/well. The chemiluminescence values (RLU) were measured using a microplate reader, and the cell proliferation inhibition rate for each well was calculated: IR(%) = (RLUDMSO - RLUcompound)/(RLUDMSO - RLUblank) × 100%, where RLUDMSO is the average RLU signal value from the DMSO control well samples, RLUblank is the average RLU signal value from the medium control well samples, and RLUcompound is the RLU signal value from the compound-treated well samples. […]

Compound | IC50 (p-ERK; Homo sapiens, NCI-H441, 3 h) | IC50 (NCI-H441 cells; Homo sapiens, NCI-H441, 120 h) | IC50 (p-ERK) | IC50 (NCI-H441 cells)
CCn1nc2c(c1-c1cc(C#CCN3CCS(=O)(=O)CC3)cnc1C(C)OC)CC(C)(C)COC(=O)C1CCCN(N1)C(=O)C(NC(=O)C(C)Cc1ccnc(NC)c1)Cc1nc(cs1)C=C2 (single isomer, unassigned) [Compound Z52-2] | – | – | 32 nM | 25 nM
CO[C@@H](C)c1ncc(C#CCN2CCS(=O)(=O)CC2)cc1-c1c2c(nn1C(C)C)/C=C/c1csc(n1)C[C@H](NC(=O)[C@H](Cc1cccc3ncccc13)C(C)C)C(=O)N1CCC[C@H](N1)C(=O)OCC(C)(C)C2 [Compound Z44-2, (2R)-N-((4^2Z,8^3S,2E,6S)-1^5-(5-(3-(1,1-dioxidothiomorpholino)prop-1-yn-1-yl)-2-((S)-1-methoxyethyl)pyridin-3-yl)-1^1-isopropyl-12,12-dimethyl-7,9-dioxo-8^1,8^2,8^3,8^4,8^5,8^6-hexahydro-1^1H-10-oxa-4(4,2)-thiazola-8(1,3)-pyridazina-1(3,4)-pyrazolocyclotridec-2-en-6-yl)-3-methyl-2-(quinolin-5-ylmethyl)butanamide formate] | – | – | 15.4 nM | 76.3 nM

More lines, main results first:

IC50 (p-ERK; Homo sapiens, NCI-H441, 3 h) | IC50 (NCI-H441 cells; Homo sapiens, NCI-H441, 120 h) | Compound | IC50 (p-ERK) | IC50 (NCI-H441 cells)
115 nM | 386 nM | CCn1nc2c(c1-c1cc(C#CCN3CCS(=O)(=O)CC3)cnc1[C@H](C)OC)CC(C)(C)COC(=O)[C@@H]1CCCN(N1)C(=O)[C@@H](NC(=O)[C@H](C(C)C)N1CCC(C)C1=O)Cc1nc(cs1)/C=C/2 (atropisomer, axis not shown; (Ra)) [Compound Z116, (2S)-N-((4^2Z,8^3S,2E,6S)-(Ra)-1^5-(5-(3-(1,1-dioxothiomorpholinyl)prop-1-yn-1-yl)-2-((S)-1-methoxyethyl)pyridin-3-yl)-1^1-ethyl-12,12-dimethyl-7,9-dioxo-8^1,8^2,8^1,8^4,8^5,8^6-hexahydro-1^1H-10-oxo-4 (4,2)-thiazola-8(1,3)-pyridazina-1(3,4)-pyrrolacyclotridecaphan-2-en-6-yl)-3-methyl-2-(3-methyl-2-oxopyrrolidin-1-yl)butanamide] | – | –
3.97 nM | 18.9 nM | CCn1nc2c(c1-c1cc(C#CCN3CCS(=O)(=O)CC3)cnc1[C@H](C)OC)CC(C)(C)COC(=O)[C@@H]1CCCN(N1)C(=O)[C@@H](NC(=O)[C@H](C(C)C)N(C)c1ccc3ncn(C)c3c1)Cc1nc(cs1)/C=C/2 (atropisomer, axis not shown; (Ra)) [Compound Z115, (2S)-N-((4^2Z,8^3S,2E,6S)-1^5-(Ra)-(5-(3-(1,1-dioxidothiomorpholino)prop-1-yn-1-yl)-2-((S)-1-methoxyethyl)pyridin-3-yl)-1^1-ethyl-12,12-dimethyl-7,9-dioxo-8^1,8^2,8^3,8^4,8^5,8^6-hexahydro-1^1H-10-oxa-4(4,2)-thiazola-8(1,3)-pyridazina-1(3,4)-pyrazolocyclotridec-2-en-6-yl)-3-methyl-2-(methyl(1-methyl-1H-benzo[d]imidazol-6-yl)amino)butanamide] | – | –
3.92 nM | 7.19 nM | CCn1c(OC)c2c(c1-c1cc(C#CCN3CCS(=O)(=O)CC3)cnc1[C@H](C)OC)CC(C)(C)COC(=O)[C@@H]1CCCN(N1)C(=O)[C@@H](NC(=O)[C@H]1[C@H](C)[C@@H]1C)Cc1nc(cs1)/C=C/2 (atropisomer, axis not shown; (Ra)) [Compound Z191, (1r,2R,3S)-N-((4^2Z,8^3S,2E,6S)-(Ra)-1^5-(5-(3-(1,1-dioxidothiomorpholino)prop-1-yn-1-yl)-2-((S)-1-methoxyethyl)pyridin-3-yl)-1^1-ethyl-1^2-methoxy-12,12-dimethyl-7,9-dioxo-8^1,8^2,8^3,8^4,8^5,8^6-hexahydro-1^1H-10-oxa-4(4,2)-thiazola-8(1,3)-pyridazina-1(3,4)-pyrrolacyclotridecaphan-2-en-6-yl)-2,3-dimethylcyclopropane-1-carboxamide] | – | –
